Reference: article PMC7154858, “Transcriptional and Biochemical Characterization of Cytosolic Pyruvate Kinases in Arabidopsis thaliana” (Plants, 2020)
Each block holds one compound with its values, some of them ahead of it.

Legend:
Assay in all cases: LDH-coupled assay, single effector concentration
Type in all cases: biochemical
cPK1 [1] = target: T1, cPK1 (Arabidopsis thaliana, UniProt Q9FNN1); conditions: 1000 µM; saturating ADP and PEP; 10 mM MgCl2, pH 7.5, 25 °C; activator
T1 construct: gene MAH20.13; full-length cDNA in pET16b, N-terminal His tag (6x in Results, 5x in Methods), E. coli BLR21, Ni-NTA; primer begins MSNIDIEG
T1 sequence (Q9FNN1 1-510): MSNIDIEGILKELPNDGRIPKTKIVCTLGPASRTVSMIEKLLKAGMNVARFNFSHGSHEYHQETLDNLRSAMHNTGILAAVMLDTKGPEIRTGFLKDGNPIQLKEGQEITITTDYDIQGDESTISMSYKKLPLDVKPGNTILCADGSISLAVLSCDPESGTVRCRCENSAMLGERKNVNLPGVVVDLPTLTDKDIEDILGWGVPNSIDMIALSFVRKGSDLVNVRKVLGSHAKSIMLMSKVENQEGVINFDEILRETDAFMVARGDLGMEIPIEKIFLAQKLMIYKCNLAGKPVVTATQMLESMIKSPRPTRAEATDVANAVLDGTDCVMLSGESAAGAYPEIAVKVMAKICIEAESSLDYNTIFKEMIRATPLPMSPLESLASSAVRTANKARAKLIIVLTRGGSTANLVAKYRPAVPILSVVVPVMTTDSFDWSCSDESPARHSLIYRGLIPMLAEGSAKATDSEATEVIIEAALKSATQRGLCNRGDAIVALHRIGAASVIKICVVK

cPK4 = target: T2, cPK4 (Arabidopsis thaliana, UniProt Q9SJQ0); conditions: 4000 µM; saturating ADP and PEP; 10 mM MgCl2, pH 7.5, 25 °C; allosteric inhibitor (stated)
T2 construct: gene At2g36580; full-length cDNA in pET16b, N-terminal His tag (6x in Results, 5x in Methods), E. coli BLR21, Ni-NTA; primer begins MHSSHL
T2 sequence (Q9SJQ0 1-527): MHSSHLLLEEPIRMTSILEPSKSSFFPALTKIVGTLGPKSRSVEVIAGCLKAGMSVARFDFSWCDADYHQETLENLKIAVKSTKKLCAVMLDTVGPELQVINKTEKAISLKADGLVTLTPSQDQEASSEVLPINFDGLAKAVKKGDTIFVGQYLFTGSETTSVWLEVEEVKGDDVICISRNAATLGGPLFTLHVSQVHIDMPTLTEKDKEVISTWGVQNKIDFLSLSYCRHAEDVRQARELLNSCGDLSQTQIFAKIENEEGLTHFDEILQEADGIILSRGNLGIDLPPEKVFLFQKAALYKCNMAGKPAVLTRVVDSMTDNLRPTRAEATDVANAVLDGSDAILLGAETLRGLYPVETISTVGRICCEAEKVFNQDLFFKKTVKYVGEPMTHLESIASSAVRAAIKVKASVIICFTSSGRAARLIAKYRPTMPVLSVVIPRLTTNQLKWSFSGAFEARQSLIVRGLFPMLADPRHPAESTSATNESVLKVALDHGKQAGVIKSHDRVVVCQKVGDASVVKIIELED

cPK3 [2] = target: T3, cPK3 (Arabidopsis thaliana, UniProt Q9FFP6); conditions: 4000 µM; saturating ADP and PEP; 10 mM MgCl2, pH 7.5, 25 °C; allosteric inhibitor (stated)
T3 construct: gene MBK5.16; printed locus At5g56350 duplicates cPK2 (apparent misprint); primer begins MSNIDIE, unlike cPK2; full-length cDNA in pET16b, N-terminal His tag (6x/5x), E. coli BLR21, Ni-NTA
T3 sequence (Q9FFP6 1-510): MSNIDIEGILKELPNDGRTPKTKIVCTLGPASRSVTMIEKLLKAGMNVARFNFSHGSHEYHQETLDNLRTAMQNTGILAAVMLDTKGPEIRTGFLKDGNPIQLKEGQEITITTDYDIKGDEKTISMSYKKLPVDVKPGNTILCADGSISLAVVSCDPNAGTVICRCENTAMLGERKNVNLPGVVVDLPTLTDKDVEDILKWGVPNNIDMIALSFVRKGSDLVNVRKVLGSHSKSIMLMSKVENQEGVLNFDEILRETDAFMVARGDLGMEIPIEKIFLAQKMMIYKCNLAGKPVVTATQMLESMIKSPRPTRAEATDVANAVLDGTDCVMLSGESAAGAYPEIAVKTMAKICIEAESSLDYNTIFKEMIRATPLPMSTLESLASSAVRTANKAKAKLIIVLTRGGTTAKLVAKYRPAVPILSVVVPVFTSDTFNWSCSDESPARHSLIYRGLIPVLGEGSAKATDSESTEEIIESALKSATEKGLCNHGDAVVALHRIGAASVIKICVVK

cPK1 [3] = target: T1, cPK1; conditions: 4000 µM; saturating ADP and PEP; 10 mM MgCl2, pH 7.5, 25 °C; allosteric inhibitor (stated)
cPK2 [4] = target: T4, cPK2 (Arabidopsis thaliana, UniProt Q9FM97); conditions: 4000 µM; saturating ADP and PEP; 10 mM MgCl2, pH 7.5, 25 °C; allosteric inhibitor (stated)
T4 construct: gene MCD7.8; full-length cDNA in pET16b, N-terminal His tag (6x in Results, 5x in Methods), E. coli BLR21, Ni-NTA; primer begins MAMIEQ
T4 sequence (Q9FM97 1-498): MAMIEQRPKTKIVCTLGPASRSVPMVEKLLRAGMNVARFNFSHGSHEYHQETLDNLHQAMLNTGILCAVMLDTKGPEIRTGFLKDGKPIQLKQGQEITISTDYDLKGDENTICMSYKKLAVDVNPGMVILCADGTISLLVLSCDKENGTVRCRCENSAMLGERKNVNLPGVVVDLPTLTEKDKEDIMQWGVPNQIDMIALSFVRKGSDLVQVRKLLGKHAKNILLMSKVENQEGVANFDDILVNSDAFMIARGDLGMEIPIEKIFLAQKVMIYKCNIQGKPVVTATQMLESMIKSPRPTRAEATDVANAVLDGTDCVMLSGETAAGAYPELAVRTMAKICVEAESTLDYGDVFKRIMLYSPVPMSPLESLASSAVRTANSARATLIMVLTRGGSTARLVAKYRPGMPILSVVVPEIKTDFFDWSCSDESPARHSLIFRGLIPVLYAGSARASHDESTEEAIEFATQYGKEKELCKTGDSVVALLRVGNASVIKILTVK

cPK5 = target: T5, cPK5 (Arabidopsis thaliana, UniProt F4J867); conditions: 4000 µM; saturating ADP and PEP; 10 mM MgCl2, pH 7.5, 25 °C; allosteric inhibitor (stated)
T5 construct: gene At3g52990; full-length cDNA in pET16b, N-terminal His tag (6x in Results, 5x in Methods), E. coli BLR21, Ni-NTA; primer begins MHSSHL
T5 sequence (F4J867 1-527): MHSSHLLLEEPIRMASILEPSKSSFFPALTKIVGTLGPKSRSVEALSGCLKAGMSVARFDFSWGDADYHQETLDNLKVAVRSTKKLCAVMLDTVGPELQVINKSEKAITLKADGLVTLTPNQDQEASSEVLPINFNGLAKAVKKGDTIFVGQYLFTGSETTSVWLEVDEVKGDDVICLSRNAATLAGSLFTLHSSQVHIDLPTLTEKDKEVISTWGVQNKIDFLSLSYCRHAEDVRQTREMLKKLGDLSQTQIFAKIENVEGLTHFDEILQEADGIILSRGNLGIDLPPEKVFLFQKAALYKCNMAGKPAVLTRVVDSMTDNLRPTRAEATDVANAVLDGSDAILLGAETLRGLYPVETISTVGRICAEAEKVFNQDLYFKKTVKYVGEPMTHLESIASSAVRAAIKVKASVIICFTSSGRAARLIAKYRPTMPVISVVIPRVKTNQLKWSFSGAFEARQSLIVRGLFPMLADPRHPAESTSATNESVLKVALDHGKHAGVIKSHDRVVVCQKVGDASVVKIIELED

cPK3 [5] = target: T3, cPK3; conditions: 2000 µM; saturating ADP and PEP; 10 mM MgCl2, pH 7.5, 25 °C; inhibitor (also reaction product)
cPK2 [6] = target: T4, cPK2; conditions: 2000 µM; saturating ADP and PEP; 10 mM MgCl2, pH 7.5, 25 °C; inhibitor (also reaction product)
cPK1 [7] = target: T1, cPK1; conditions: 2000 µM; saturating ADP and PEP; 10 mM MgCl2, pH 7.5, 25 °C; inhibitor (also reaction product)
cPK1 [8] = target: T1, cPK1; conditions: 200 µM; saturating ADP and PEP; 10 mM MgCl2, pH 7.5, 25 °C; inhibitor

- F1.6BP (cPK1 [1]): 122%
Compound: O=P(O)(O)OC[C@H]1OC(O)(COP(=O)(O)O)[C@@H](O)[C@@H]1O (stereo partly shown) [F1.6BP]

- Citrate (cPK4): 3%
- Citrate (cPK3 [2]): 7%
- Citrate (cPK1 [3]): 17%
- Citrate (cPK2 [4]): 26%
- Citrate (cPK5): 2%
Compound: O=C(O)CC(O)(CC(=O)O)C(=O)O [citrate]

- ATP (cPK3 [5]): 27%
- ATP (cPK2 [6]): 76%
- ATP (cPK1 [7]): 7%
Compound: Nc1ncnc2c1ncn2[C@@H]1O[C@H](COP(=O)(O)OP(=O)(O)OP(=O)(O)O)[C@@H](O)[C@H]1O [ATP]

- Aspartate (cPK1 [8]): 69%
Compound: N[C@@H](CC(=O)O)C(=O)O [aspartate]
